Tested on: QTc interval
Assay: Anesthetized cardiovascular guinea pig (CVGP) assay
Assay type: in vivo
Experimental: Briefly, male Hartley guinea pigs (BW: 350–500 g) were anesthetized with a bolus mixture of ketamine/xylazine (85/5 mg kg^− 1, IM) then an intravenous (iv) infusion of ketamine/xylazine (40/0.5 mg kg^− 1 h^− 1, to effect). The jugular vein and left carotid arteries were cannulated for test article administration and arterial blood pressure (BP) monitoring and blood collection, respectively. The body surface electrocardiogram (ECG) was measured via subcutaneous needle electrodes to record modified lead-II ECG. After surgery, anesthetized GPs were stabilized for a minimum of 10 min before beginning baseline data collection. Solutions of 3 varying test-article concentrations suitable for administering selected doses were prepared in appropriate vehicles. Vehicle alone or test-article solutions were administered i.v. with each dose level infused over a 20-min period. Each test article and vehicle were evaluated in ≥ n = 3 male anesthetized GPs. Blood sampling for pharmacokinetic analysis was taken at 10 and 19 min of each dose level.

How did the “CVGP QTc EC5” value (anesthetized guinea pig, free plasma concentration causing 5% increase in QTc interval, > = highest free plasma concentration tested without QTc prolongation) turn out when `COc1c(N2C[C@@H]3CCCN[C@@H]3C2)c(F)cc2c(=O)c(C(=O)O)cn(C3CC3)c12` [NCE 7, moxifloxacin] was run?
The value was 12 µM.

And the “CVGP QTc EC5” value (free plasma concentration)?
Its value is 15 µM.

And the “Guinea pig QTc EC5” value (free plasma concentration giving 5% QTc increase, > = above highest free plasma concentration tested, no QTc prolongation, i.v. infusion)?
Its value is 15 µM.

Reference: PMC7322544, “Combining an in silico proarrhythmic risk assay with a tPKPD model to predict QTc interval prolongation in the anesthetized guinea pig assay” (Toxicology and Applied Pharmacology, 2020)
